Test results as given in patent US11622980B2, “Compositions comprising prebiotics and probiotics” (OPTIBIOTIX LIMITED, priority 2017, dated 2023).
Entries after “also recorded” stand apart in the source; their conditions may differ. Like-named read-outs stand apart in the source and are kept apart here.

Legend:
[1] = tested on: Bacteroides/Prevotella (Bac303); test: FISH of commensal bacteria in pH controlled faecal culture, probe Bac303; assay type: cell-based, healthy adults; settings: pH controlled anaerobic faecal culture
Experimental: (§1) All vessels, run in parallel, were to be inoculated with the same faecal sample and the experiment repeated using a faecal sample from each of six different healthy donors. Samples were to be obtained at inoculation (0 h) and then at 8 and 24 h of fermentation for: determination of LR levels in faecal culture using qPCR; and determination of the impact of each intervention on commensal faecal microbiome composition using FISH to ensure novel prebiotic will not be fermented by undesirable bacteria and ensure selectivity in a complex, competitive culture environment. Analysis targeted numerically dominant and functionally significant faecal bacterial groups including Bacteroides, Clostridium, Eubacterium, Propionibacterium, Bifidobacterium, Lactobacillus, Faecalibacterium, Atopobium, and Desulfovibrio.
(§2) An in vitro assessment of synbiotic efficacy in faecal culture using a pH controlled, anaerobic, temperature controlled cultures. The cultures were inoculated with faecal slurry of each of 6 healthy adults. […]
(§3) Fluorescent in situ hybridisation (FISH) experiments were then conducted to investigate the impact on commensal gut microbiome bacterial populations in faecal culture and the fluorescently labelled micrographs are shown in FIG. 20. FISH is a fully quantitative methodology for determining bacterial concentrations at the genus and species level. […]

L. rhamnosus ATCC 53103 [2] = test: qPCR determination of LR concentrations in anaerobic pH controlled faecal batch culture; assay type: cell-based, Lactobacillus rhamnosus; settings: for LR concentration (growth) in faecal culture: pH controlled anaerobic faecal batch culture, 1% w/v substrate, LR 5.36×10^4 cfu
Experimental: Synbiotic potential of the selected oligosaccharides/blends was then to be determined in 24 h, anaerobic, pH and temperature controlled micro-scale faecal (10 ml working volume) faecal batch culture models.
The models had been optimised to work at 1% w/v test oligosaccharide concentration and carried out at pH6.8, which is relevant to the distal colon. Conditions in the distal colon (carbohydrate availability, very slow transit time) are more relevant to batch culture design. Fermentations were to be set up in parallel in identical conditions with the only variable being the test oligosaccharides. The following combinations were to be tested in each experimental run: • Faeces (prebiotic negative control) • Faeces+LR (synbiotic negative control) • Faeces+LR+GeOS (gentiooligosaccharides) • Faeces+LR+Cellb (cellobiose) • Faeces+LR+XOS (xylooligosaccharides) • Faeces+GeOS • Faeces+Cellb • Faeces+XOS • Feces+inulin (positive prebiotic control for test prebiotics) • Faeces+FOS (positive prebiotic control for test prebiotics) • Faeces+LR+inulin (positive prebiotic control for test synbiotics) • Faeces+LR+FOS (positive prebiotic control for test synbiotics)
as §1, with “Samples were to be obtained at inoculation (0 h) and then at 8 and 24 h of fermentation for: determination of LR” left out
(§4) An in vitro assessment of synbiotic efficacy in faecal culture using a pH controlled, anaerobic, temperature controlled cultures. The cultures were inoculated with faecal slurry of each of 6 healthy adults. The combinations included: • Faeces (prebiotic negative control) • Faeces+LR (synbiotic negative control) • Faeces+LR+GeOS (gentiooligosaccharides) • Faeces+LR+Cellb (cellobiose) • Faeces+LR+XOS (xylooligosaccharides) • Faeces+GeOS • Faeces+Cellb • Faeces+XOS • Feces+inulin (positive prebiotic control for test prebiotics) • Faeces+FOS (positive prebiotic control for test prebiotics) • Faeces+LR+inulin (positive prebiotic control for test synbiotics) • Faeces+LR+FOS (positive prebiotic control for test synbiotics)
No commensal LR was detected in the prebiotic only cultures (data not shown).
The primers for the real-time PCR determination was as follows: […]

[3] = tested on: gas producing members of the faecal microbiota; test: Rate of gas and cumulative gas determination in non-pH controlled faecal culture; assay type: cell-based, healthy adults
Experimental: The aims of this experiment were to determine: (i) the total gas production over a 24 h fermentation period of each of carbohydrate of interest; (ii) the kinetics of gas production (rate) to evaluate the potential of increased abdominal discomfort in vivo upon the ingestion of the carbohydrates of interest; and (iii) the impact of using the selected carbohydrates in combination with LR on total and rate of gas production.
Determination of rate of gas was of particular importance as gas generation at specific time points rather than continuously at low or moderate levels may correlate with abdominal discomfort in vivo and important in relevance to consumer acceptability.
The experiments investigated the potential for gastrointestinal discomfort in vitro, through the determination of rate of gas and cumulative gas production in faecal culture. The cultures were non-pH controlled and six experimental runs were conducted using faeces from six different healthy adults. Headspace gas readings collected every 3 h over a 24 h period for rate of gas determination
The experimental design was as follows: • Faeces • Faeces+L. rhamnosus ATCC 53103 (negative control) • Faeces+Inulin HP (positive prebiotic control) • Faeces+Inulin HP+L. rhamnosus ATCC 53103 (positive synbiotic control) • Faeces+test carbohydrate • Faeces+test carbohydrate+L. rhamnosus ATCC 53103 Lactobacillus rhamnosus ATCC 53103 Test Dose Determination
Intervention dose used in the non-pH controlled gas determination experiments and the pH controlled faecal batch culture experiments was calculated based on the relative amounts of faecal inoculum and LR viable counts in the gut model (low dose, 0.75×10^4 cfu) and the relative concentrations of total bacteria to LR viable counts in the gut model (high dose, 5.36×10^4 cfu). Both doses were tested in the non-pH controlled gas determination faecal cultures to determine the possible role of LR in rate and cumulative gas production.

Ato291 (Atopobium) = test: FISH of commensal bacteria in pH controlled faecal culture, probe Ato291; assay type: cell-based, healthy adults; settings: pH controlled anaerobic faecal culture, FIG. 25
Experimental: as §1, §2, §3

L. rhamnosus ATCC 53103 [4] = test: Organic acid (SCFA and lactate) synthesis in pH controlled faecal batch culture; assay type: cell-based, Lactobacillus rhamnosus; settings: pH controlled faecal batch cultures with LR
Text: Lastly, determination of faecal microbiome activity through organic acid (SOFA and lactate) measurement was to be conducted at each sampling point. Information will indicate potential fermentation rates of each novel prebiotic.
as §4

[5] = tested on: Lactobacillus plantarum 2830 (ECGC 13110402); test: Pure culture growth of Lactobacillus plantarum 2830 (LP-LDL) on carbohydrate sources; assay type: cell-based; settings: modified MRS, glucose (1% wt/vol) substituted, anaerobic, 37° C., OD 620 nm
Experimental: Similar growth experiments to Example 1 above were conducted on Lactobacillus plantarum 2830 (ECGC 13110402) on a range of substrates including, MRS+LP, Glucose, Lactose, LP GOS, alphaGOS (a proprietary GOS product), Raffinose, Galactose, Cellobiose, FOS (short chain), Sucrose, GOS I (a proprietary GOS product), GOS II (a proprietary GOS product), GOS III (a proprietary GOS product) and Gentiooligosaccharides (GeOS). […] Experiments were carried out under anaerobic conditions on a 96-well microtiter plate system (FLUOstar Omega, BMG LABTECH) in a final volume of 200 μL using an inoculum size 10% (w/v), previously diluted to obtain an initial OD620 nm=0.2. Incubation was conducted under anaerobic conditions at 37° C. with interval shaking at 500 rpm every 5 min. Optical density measurements at 620 nm were employed to assess microbial growth.

L. rhamnosus ATCC 53103 [6] = test: Pure culture growth screening of L. rhamnosus ATCC 53103 on oligo/polysaccharides; assay type: cell-based, Lactobacillus rhamnosus
Text: Commercially available prebiotics and other oligo and polysaccharides were first screened using a fast throughput automated growth culture system under anaerobic conditions to establish ability to support LR growth and define growth rates (1% w/v). The following test substrates had been initially identified for further consideration: Short chain fructooligosaccharides (scFOS), oligofructose P95 (FOS), Orafti ST, Orafti HP, Synergy 1, Bioecolians (glucooligosaccharides), gentiooligosaccharides, fucosyllactose, ß glucan (low/medium/high molecular weight; derived from oats), yeast ß glucan, arabinoxylan, xylooligosaccharides, caseinoglycomacropeptide (cgmp), raffinose, stachyose and Bio-Mos.
The aim of the experiment was to investigate the growth behavior of L. rhamnosus ATCC 53103 under a wide variety of commercially available, oligo and polysaccharides and to evaluate impact of test substrate physical characteristics on screening process and investigate growth on GOS synthesized by L. rhamnosus GR1 β-galactosidases. Results would be evaluated on the basis of: microbial growth (OD-Fermentation time); growth rate [μmax(h^−1)]; and change in optical density (max-min). Growth preferences of Lactobacillus rhamnosus ATCC 53103 would be used to determine target structures and carbohydrates for use as prebiotics for L. rhamnosus species or strains. […]

[7] = tested on: Lactobacillus/Enterococcus (Lab158); test: FISH of commensal bacteria in pH controlled faecal culture, probe Lab158; assay type: cell-based, healthy adults
Experimental: as §1, §2, §3

With `O=C[C@H](O)[C@@H](O)[C@H](O[C@@H]1O[C@H](CO)[C@@H](O)[C@H](O)[C@H]1O)[C@H](O)CO` [cellobiose] the “Bacteroides/Prevotella (Bac303) concentration” value [1] was “some impact”, the “volunteers showing an increase of L. rhamnosus ATCC 53103 concentrations” value (L. rhamnosus ATCC 53103 [2]; 0, 10 and 24 h pH controlled faecal batch culture, six volunteers, qPCR) was “Five out of the six” and the “LR concentration (growth) in faecal culture” value (L. rhamnosus ATCC 53103 [2]; qPCR) was “growth of LR”. The “LR concentration (growth) in faecal culture” value (L. rhamnosus ATCC 53103 [2]; qPCR, listed as Cellobiose) was “best growth substrate for LR; also recorded: increases in LR concentration”, the “dependence of the effect on LR on faecal donor” value (L. rhamnosus ATCC 53103 [2]; pH controlled faecal batch cultures, six donors) was “not dependent on faecal donor enterotype” and the “rate of gas production” value ([3]; 24 h non-pH controlled faecal culture, readings every 3 h, relative to inulin) was “comparable to that of inulin”. The cumulative gas production ([3]; 24 h non-pH controlled faecal culture, relative to inulin) was “comparable to that of inulin”, the “donors sensitive to the test oligosaccharide (total gas production)” value (“donors sensitive” below) ([3]; 24 h non-pH controlled faecal fermentation, six faecal donors) was “Donors 4 and 7; also recorded: donor 5” and the Ato291 concentrations (Ato291 (Atopobium)) was “some increases”. For the same compound, the “LR activity (organic acid synthesis)” value (L. rhamnosus ATCC 53103 [4]) was “mediated increases in LR concentration and activity”, the “growth rates of LP-LDL” value [5] was “highest growth rates” and the “growth yields of LP-LDL” value [5] was “highest growth yields”. The lag phase (L. rhamnosus ATCC 53103 [6]; pure culture growth curves, 1% (w/v) substrate, FIG. 9) was “notably longer lag phase”, the “growth of LR in pure culture” value (L. rhamnosus ATCC 53103 [6]; pure culture, modified MRS, 1% w/v test carbohydrate) was “can grow in pure culture” and the “responders within the 6 faecal donors (Lab158)” value ([7]; compared to the positive controls (inulin and FOS)) was “More responders”. For the same compound, the “Lab158 (Lactobacillus/Enterococcus) concentration” value ([7]; pH controlled anaerobic faecal culture, six healthy adults, FISH) was “significant increase”.

For gentiooligosaccharides [GeOS], the “donors sensitive” value [3] was “Donors 4 and 7”, the “rate of gas production” value [3] was “comparable to that of inulin” and the “tolerance by donors (total gas and rate of gas)” value [3] was “tolerated the best by the majority of donors”.

In the case of xylooligosaccharides [XOS], the “donors sensitive” value [3] is reported as “Donors 4 and 7”, the “rate of gas production” value [3] is reported as “comparable to that of inulin” and the “tolerance by donors (total gas and rate of gas)” value [3] is reported as “tolerated the best by the majority of donors”.
